Data as given in the NIST ThermoML archive (doi:10.1021/je800021r).
Values joined by “and” are separate entries in the source; they are usually repeats but may differ in a detail not shown here. Equal values may be shown once. Numbers after ± are expanded uncertainties.

Settings: Liquid, Ebulliometric method (Recirculating still)

Row | SMILES | vapor or sublimation pressure (364.5 K) [kPa] | vapor or sublimation pressure (364.51 K) | vapor or sublimation pressure (364.52 K) [kPa]
1 | CC(C)C [2-methylpropane] | 1685.6 ± 7.4 | 1686.4 ± 7.4 kPa and 1686.3 ± 7.4 kPa | 1686.3 ± 7.4
2 | CCC(C)O (configuration not stated) [butan-2-ol] |  | 74.1 ± 1.4 kPa | 
3 | CO [methanol] |  | 267.5 ± 1.8 kPa | 

The next lines start with the values.

Row | vapor or sublimation pressure (364.5 K) [kPa] | vapor or sublimation pressure (364.51 K) | vapor or sublimation pressure (364.52 K) [kPa] | SMILES
4 |  | 144.2 ± 1.5 kPa |  | CC(C)O [propan-2-ol]
5 | 142.6 ± 1.5 |  |  | CC(C)(C)O [2-methylpropan-2-ol]
